Like-named read-outs stand apart in the source and are kept apart here.
Key:
[1] = biological target: T1, Human recombinant PDE10A (hPDE10A) (Homo sapiens, UniProt Q9Y233); assay: In vitro assay PDE10A, human clone (SPA, 3H-cAMP hydrolysis); assay type: biochemical
T1 construct: His tag (inferred from metal chelate purification); made in house; host or cells: Sf9 insect cells (baculovirus)
In short: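 Human recombinant PDE10A was expressed in Sf9 cells via baculovirus and incubated with compound in 50 mM Tris pH 7.8, 8.3 mM MgCl2, 1.7 mM EGTA. Substrate was 60 nM cAMP plus 0.008 μCi 3H-cAMP for 60 min at room temperature, read by SPA scintillation counting. Controls used 1% DMSO, and blanks omitted enzyme.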

[2] = biological target: T2, Human recombinant PDE2A (hPDE2A) (Homo sapiens, UniProt O00408); assay: In vitro assay PDE2A (SPA, 3H-cGMP hydrolysis); assay type: biochemical; conditions: for Emax: read-out: hPDE2A Emax
T2 construct: His tag (inferred from metal chelate purification); made in house; host or cells: Sf9 insect cells (baculovirus)
T2 sequence (O00408 whole entry): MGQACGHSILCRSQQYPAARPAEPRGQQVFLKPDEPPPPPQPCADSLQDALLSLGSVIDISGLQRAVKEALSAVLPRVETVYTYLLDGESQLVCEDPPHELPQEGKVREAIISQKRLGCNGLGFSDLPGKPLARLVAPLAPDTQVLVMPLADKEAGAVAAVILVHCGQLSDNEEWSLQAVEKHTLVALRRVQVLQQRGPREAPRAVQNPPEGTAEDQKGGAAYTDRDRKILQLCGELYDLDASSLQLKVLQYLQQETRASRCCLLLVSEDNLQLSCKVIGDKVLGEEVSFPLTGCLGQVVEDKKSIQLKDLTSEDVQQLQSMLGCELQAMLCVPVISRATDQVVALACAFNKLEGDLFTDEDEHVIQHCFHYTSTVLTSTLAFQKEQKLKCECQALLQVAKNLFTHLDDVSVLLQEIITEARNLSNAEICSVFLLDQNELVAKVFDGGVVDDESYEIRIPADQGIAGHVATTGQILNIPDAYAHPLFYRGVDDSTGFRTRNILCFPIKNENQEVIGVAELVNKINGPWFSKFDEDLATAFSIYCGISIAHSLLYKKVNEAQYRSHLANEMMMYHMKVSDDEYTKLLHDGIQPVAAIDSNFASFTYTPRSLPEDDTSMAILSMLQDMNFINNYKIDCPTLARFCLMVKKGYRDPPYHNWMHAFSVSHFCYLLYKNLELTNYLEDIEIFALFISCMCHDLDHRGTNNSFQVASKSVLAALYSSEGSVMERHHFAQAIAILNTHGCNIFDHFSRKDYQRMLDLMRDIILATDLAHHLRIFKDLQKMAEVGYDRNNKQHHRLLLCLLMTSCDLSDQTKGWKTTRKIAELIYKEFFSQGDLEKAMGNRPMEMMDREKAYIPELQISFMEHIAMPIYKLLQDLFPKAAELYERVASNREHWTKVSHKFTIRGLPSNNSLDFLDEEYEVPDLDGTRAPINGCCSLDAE

[3] = biological target: T3, Human recombinant PDE3A (hPDE3A) (Homo sapiens, UniProt Q14432); assay: In vitro assay PDE3A (SPA, 3H-cAMP hydrolysis); assay type: biochemical; conditions: for IC50: hPDE3B pIC50; for Emax: read-out: hPDE3B Emax, read-out: Emax;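 as to Emax: the method names PDE3A and the table heading PDE3B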
T3 construct: purchased Scottish Biomedical; host or cells: Sf9 insect cells
T3 sequence (Q14432 whole entry): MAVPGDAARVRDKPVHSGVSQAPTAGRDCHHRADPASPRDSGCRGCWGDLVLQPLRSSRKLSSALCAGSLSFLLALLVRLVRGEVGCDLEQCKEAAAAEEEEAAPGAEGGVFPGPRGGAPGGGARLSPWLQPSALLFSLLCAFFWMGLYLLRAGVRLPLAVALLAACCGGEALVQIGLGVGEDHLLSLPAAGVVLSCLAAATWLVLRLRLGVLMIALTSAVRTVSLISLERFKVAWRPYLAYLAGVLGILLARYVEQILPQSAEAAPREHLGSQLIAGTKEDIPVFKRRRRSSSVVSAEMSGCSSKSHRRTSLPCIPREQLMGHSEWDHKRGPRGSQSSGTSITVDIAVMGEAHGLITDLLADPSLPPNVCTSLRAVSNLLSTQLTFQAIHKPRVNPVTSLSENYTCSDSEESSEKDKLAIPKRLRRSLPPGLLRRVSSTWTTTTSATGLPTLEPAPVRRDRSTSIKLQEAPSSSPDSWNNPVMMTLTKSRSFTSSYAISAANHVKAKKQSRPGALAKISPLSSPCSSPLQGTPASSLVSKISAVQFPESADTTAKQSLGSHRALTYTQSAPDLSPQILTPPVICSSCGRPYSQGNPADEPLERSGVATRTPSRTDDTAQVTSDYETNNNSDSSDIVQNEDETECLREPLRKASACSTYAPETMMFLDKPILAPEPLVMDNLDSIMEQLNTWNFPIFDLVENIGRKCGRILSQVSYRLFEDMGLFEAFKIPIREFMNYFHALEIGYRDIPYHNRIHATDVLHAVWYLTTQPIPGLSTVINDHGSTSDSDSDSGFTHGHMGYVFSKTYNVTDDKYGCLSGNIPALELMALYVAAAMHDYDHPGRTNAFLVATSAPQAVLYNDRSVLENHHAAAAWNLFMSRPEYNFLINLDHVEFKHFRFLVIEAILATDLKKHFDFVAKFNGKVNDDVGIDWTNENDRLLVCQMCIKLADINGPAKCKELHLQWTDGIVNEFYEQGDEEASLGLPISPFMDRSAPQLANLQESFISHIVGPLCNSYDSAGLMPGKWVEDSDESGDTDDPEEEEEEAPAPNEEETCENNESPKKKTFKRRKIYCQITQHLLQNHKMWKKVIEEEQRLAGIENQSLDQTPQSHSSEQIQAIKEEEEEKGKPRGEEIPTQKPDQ
In short: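 Human PDE3A, cloned from brain, as partially purified Sf9 lysate. Substrate 0.4 μM cAMP plus [3H]-cAMP (2.4 μCi/ml final) in 50 mM Tris pH 7.8, 8.3 mM MgCl2, 1.7 mM EGTA, 60 min at room temperature, 1% DMSO final. Hydrolysis read by SPA scintillation counting against no-enzyme blanks and DMSO controls.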

PDE2A = biological target: T4, PDE2A (Rattus norvegicus, UniProt Q01062); assay: PDE2 occupancy by test compounds, ex-vivo autoradiography with [3H]B-17a; assay type: in vivo, Male Wistar rats; conditions: po, 10 mg/kg, route PO (oral), percentage receptor occupancy, ex-vivo autoradiography, striatum
T4 construct: Twenty μm-thick striatal sections were cut; from tissue; host or cells: rat brain, striatal sections
T4 sequence (Q01062 1-928): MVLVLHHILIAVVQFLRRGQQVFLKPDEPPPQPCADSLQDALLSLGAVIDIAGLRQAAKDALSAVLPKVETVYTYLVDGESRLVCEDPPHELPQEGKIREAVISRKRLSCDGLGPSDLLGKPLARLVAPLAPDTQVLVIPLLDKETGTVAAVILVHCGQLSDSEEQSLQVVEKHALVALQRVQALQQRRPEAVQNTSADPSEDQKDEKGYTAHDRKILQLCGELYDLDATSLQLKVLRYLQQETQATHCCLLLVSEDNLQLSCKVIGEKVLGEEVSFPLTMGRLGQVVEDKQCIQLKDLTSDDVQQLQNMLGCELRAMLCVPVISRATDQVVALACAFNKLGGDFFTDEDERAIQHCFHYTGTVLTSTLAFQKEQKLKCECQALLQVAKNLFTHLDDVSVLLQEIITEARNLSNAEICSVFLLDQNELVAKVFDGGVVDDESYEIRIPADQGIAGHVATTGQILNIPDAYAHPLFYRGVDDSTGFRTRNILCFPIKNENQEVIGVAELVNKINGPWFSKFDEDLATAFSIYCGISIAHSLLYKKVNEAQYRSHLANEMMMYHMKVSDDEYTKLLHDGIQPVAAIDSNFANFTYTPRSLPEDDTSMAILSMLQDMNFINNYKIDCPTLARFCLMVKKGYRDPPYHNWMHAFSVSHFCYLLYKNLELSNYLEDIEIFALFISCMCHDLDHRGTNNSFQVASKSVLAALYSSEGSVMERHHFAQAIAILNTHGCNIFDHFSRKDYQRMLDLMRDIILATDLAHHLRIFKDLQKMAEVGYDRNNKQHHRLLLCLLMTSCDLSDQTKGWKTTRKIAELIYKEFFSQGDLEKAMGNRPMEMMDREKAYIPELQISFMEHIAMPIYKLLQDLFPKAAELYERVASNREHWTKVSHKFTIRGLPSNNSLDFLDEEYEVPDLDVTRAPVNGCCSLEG

[4] = read-out: hPDE2A pIC50 (converted)
[5] = human clone by default (no (r) mark), read-out: hPDE10A2 or rPDE10A2 Emax
[6] = human clone by default (no (r) mark), read-out: hPDE10A2 or rPDE10A2 pIC50 (converted)

T1 sequence (Q9Y233 267-1055): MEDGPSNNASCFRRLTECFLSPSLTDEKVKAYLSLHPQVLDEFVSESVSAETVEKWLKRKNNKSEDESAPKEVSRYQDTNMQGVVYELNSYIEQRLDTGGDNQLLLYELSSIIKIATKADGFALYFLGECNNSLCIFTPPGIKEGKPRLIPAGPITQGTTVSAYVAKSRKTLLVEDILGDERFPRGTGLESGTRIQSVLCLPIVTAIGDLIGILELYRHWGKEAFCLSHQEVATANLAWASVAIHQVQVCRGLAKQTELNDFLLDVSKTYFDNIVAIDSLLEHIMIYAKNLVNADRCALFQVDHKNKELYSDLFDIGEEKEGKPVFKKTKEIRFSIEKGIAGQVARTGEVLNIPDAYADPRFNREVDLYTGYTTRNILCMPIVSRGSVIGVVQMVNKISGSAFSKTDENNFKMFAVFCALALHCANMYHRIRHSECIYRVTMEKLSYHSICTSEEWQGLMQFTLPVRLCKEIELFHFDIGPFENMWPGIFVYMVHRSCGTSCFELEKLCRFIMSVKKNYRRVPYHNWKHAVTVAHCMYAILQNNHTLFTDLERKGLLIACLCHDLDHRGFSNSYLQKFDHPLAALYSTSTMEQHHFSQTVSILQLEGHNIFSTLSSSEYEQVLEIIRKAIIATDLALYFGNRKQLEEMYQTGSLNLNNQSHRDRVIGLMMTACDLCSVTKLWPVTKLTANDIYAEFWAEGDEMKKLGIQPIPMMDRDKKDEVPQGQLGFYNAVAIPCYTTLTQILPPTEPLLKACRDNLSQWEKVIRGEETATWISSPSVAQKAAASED

Emax ([1]; human clone (h), default, read-out: hPDE10A2 Emax) [%]	IC50 ([1]; human clone (h), default, read-out: hPDE10A2 pIC50 (converted)) [nM]	IC50 ([2]; human recombinant PDE2A, 10 μM cGMP substrate, read-out: hPDE2A pIC50 (converted)) [nM]	Emax ([2]; human recombinant PDE2A) [%]	receptor occupancy at 10 mg/kg (PDE2A) [%]	SMILES	Emax [2] [%]	IC50 [2, 4] [nM]	IC50 ([3]; read-out: pIC50 (converted)) [µM]	Emax [3] [%]	Emax [1, 5] [%]	IC50 [1, 6] [nM]	IC50 ([1]; hPDE10A2 or rPDE10A2 pIC50, human clone by default (no (r) mark)) [nM]	IC50 ([2]; hPDE2A pIC50) [nM]	IC50 [3] [µM]
86	2240	15.1	100	-9	CCCC[C@H]1CCN(C(=O)c2cc(C)nc(C)c2)C[C@@H]1c1cc(C(F)F)nc2ncnn12 (single isomer, unassigned) [Compound 46]	100	15.1	> 10	5					
					O=C(c1ccc2c(c1)OC(F)(F)O2)N1[C@H]2CC[C@H](c3cc(C(F)F)nc4ncnn34)[C@@H]1CC2 [Compound 350]	100	25.1	4.9	74	85	2090			
					O=C(c1ccc(Cl)s1)N1[C@H]2CC[C@H](c3cc(C(F)F)nc4ncnn34)[C@@H]1CC2 [Compound 351]	99	51.3	6.31	69	83	2140			
					Cc1ccc(C(=O)N2[C@H]3CC[C@H](c4cc(C(F)F)nc5ncnn45)[C@@H]2CC3)o1 [Compound 354]	100	89.1	9.77	45	70	4470			
					O=C(c1ccc(F)c(C(F)(F)F)c1)N1[C@H]2CC[C@H](c3cc(C(F)F)nc4ncnn34)[C@@H]1CC2 [Compound 357]	98	77.6	> 10	34	73	3390			
					Cc1cc(C(=O)N2[C@H]3CC[C@H](c4cc(C(F)F)nc5ncnn45)[C@@H]2CC3)c(C)s1 [Compound 358]	102	26.9	> 10	40	58	7940			
					COc1c(F)cc(C(=O)N2[C@H]3CC[C@H](c4cc(C(F)F)nc5ncnn45)[C@@H]2CC3)cc1F [Compound 359]	99	12	3.98	71	86	2140			
					Cc1cc(C(=O)N2CC[C@@H](C)[C@H](c3cc(C(F)F)nc4ncnn34)C2)cc(CO)n1 [Compound 361]	100	2.75	> 10	37	92	355			
					Cc1cnc(C(=O)N2[C@H]3CC[C@H](c4cc(C(F)F)nc5ncnn45)[C@@H]2CC3)cc1C [Compound 365]	99	63.1	> 10	24	33	> 10000			
					O=C(c1cc2n(n1)CCO2)N1[C@H]2CC[C@H](c3cc(C(F)F)nc4ncnn34)[C@@H]1CC2 [Compound 367]	97	437	> 10	21	44	> 10000			
					C/C(=C\c1ccc(F)cc1)C(=O)N1[C@H]2CC[C@H](c3cc(C(F)F)nc4ncnn34)[C@@H]1CC2 [Compound 370]	100	33.9	1.45	87	94	661			
					C/C(=C\c1ccccc1)C(=O)N1[C@H]2CC[C@H](c3cc(C(F)F)nc4ncnn34)[C@@H]1CC2 [Compound 371]	101	13.8	0.389	96	98	389			
					O=C(c1ccc2sccc2c1)N1[C@H]2CC[C@H](c3cc(C(F)F)nc4ncnn34)[C@@H]1CC2 [Compound 372]	100	1.02	1.35	90	96	251			
					Cc1cc2cc(C(=O)N3[C@H]4CC[C@H](c5cc(C(F)F)nc6ncnn56)[C@@H]3CC4)ccc2n1C [Compound 373]	100	2.69	0.537	97	99	316			
					Cn1ccc2cc(C(=O)N3[C@H]4CC[C@H](c5cc(C(F)F)nc6ncnn56)[C@@H]3CC4)cc(F)c21 [Compound 374]	100	0.741	0.741	97	98	182			
					CN1CCOc2cc(C(=O)N3[C@H]4CC[C@H](c5cc(C(F)F)nc6ncnn56)[C@@H]3CC4)ccc21 [Compound 378]	99	1.7	0.759	96	97	407			
					Cn1cnc2cc(C(=O)N3[C@H]4CC[C@H](c5cc(C(F)F)nc6ncnn56)[C@@H]3CC4)ccc21 [Compound 379]	102	11.2	5.25	67	87	1620			
					Cn1ncc2cc(C(=O)N3[C@H]4CC[C@H](c5cc(C(F)F)nc6ncnn56)[C@@H]3CC4)ccc21 [Compound 380]	101	5.5	3.98	72	96	363			
					O=C(c1ccc2nccnc2c1)N1[C@H]2CC[C@H](c3cc(C(F)F)nc4ncnn34)[C@@H]1CC2 [Compound 381]	99	7.59		48	88	1320			
					Cn1ccc2cc(C(=O)N3[C@H]4CC[C@H](c5cc(C(F)F)nc6ncnn56)[C@@H]3CC4)ncc21 [Compound 382]	99	10.2	> 10	37	75	3980			
					Cc1cc([C@@H]2CN(C(=O)c3cc(C4CC4)ncc3C3CC3)CC[C@H]2C)n2ncnc2n1 [Compound 390]	98	2.09	2.57	84	99	61.7			
					Cc1nc(C(F)(F)F)cc(C(=O)N2CC[C@@H](C)[C@H](c3cc(C(F)F)nc4ncnn34)C2)c1F [Compound 394]	99	9.33	> 10	27	76	2240			
					Cc1cc(C(=O)N2CC[C@@H](C)[C@H](c3cc(C(F)F)nc4ncnn34)C2)c(F)c(C(F)(F)F)n1 [Compound 396]	98	15.1	> 10	56	84	1480			
					Cc1cc(C(=O)N2[C@H]3CC[C@H](c4cc(C(F)F)nc5ncnn45)[C@@H]2CC3)c(F)c(C)n1 [Compound 400]	99			16	41		> 10000	22.4	> 10
					Cc1cc(C(=O)N2CC[C@@H](C)[C@H](c3cc(C(F)F)nc4ncnn34)C2)cc(C)[n+]1[O-] [Compound 402]	100		> 10	28	87	1480		26.3	

Source: patent US10947242B2, “[1,2,4]triazolo[1,5and#8208;A]pyrimidine compounds as PDE2 inhibitors” (Janssen Pharmaceutica NV, priority 2016, dated 2021)
